Values of other authors as cited in publication PMC9377007, “An Unexpected Deuterium-Induced Metabolic Switch in Doxophylline” (ACS Medicinal Chemistry Letters, 2022).

How the values were obtained:
PDE-III and IV isozymes = test system: PDE-III and IV isozymes; set-up: method as in PMID 1328102; conditions: ref [30]; cited from earlier work
[1] = test system: antibronchospastic and antiasthmatic effects; set-up: method as in PMID 1652045; conditions: ref [31]; cited from earlier work

SMILES	inhibition of PDE-III and IV isozymes (PDE-III and IV isozymes)	antibronchospastic and antiasthmatic effects relative to doxophylline [1]
Cn1c(=O)c2c(ncn2CC(=O)O)n(C)c1=O [T-COOH, 7-theophylline acetic acid]	specific inhibition	–
Cn1c(=O)c2c(ncn2CCO)n(C)c1=O [etophylline, 7-hydroxyethyltheophylline]	–	significantly less active than doxophylline
